Test results as given in patent US20240279240A1, “HETEROCYCLIC DERIVATIVES AS JANUS KINASE INHIBITORS” (CHIESI FARMACEUTICI S.P.A., priority 2021, published 2024).

Columns and labels:
JAK 1 = JAK 1 (Homo sapiens, UniProt P23458); test: Biochemical potency on JAK1, TR-FRET LANCE Ultra kinase assay (examples 1-99); details: ATP at Km (20 μM), read-out: JAK1 inhibitory activity (pIC50 class) (converted)
Experimental: (§1) The objective of this study was to assess the capability of compounds to inhibit all 4 JAK isoforms activity in a cell-free environment. Assay for JAK 1, JAK 2, JAK 3 and TYK2 were performed by Time-resolved fluorescence resonance energy transfer (TR-FRET) technology. It consists in the interaction of two labelled binding partners detected by the energy transfer from an excited donor to an acceptor dye and measurement of light emission by the acceptor dye. LANCE Ultra kinase assay was used. In presence of JAK 1, JAK 2, JAK 3 and TYK2 kinases and ATP (corresponding to Km), the ULight peptide substrate (LANCE Ulight-JAK-1 (Tyr1023) Peptide, Perkin Elmer, TRF0121) is phosphorylated. It is then captured by Eu-anti-phospho-substrate antibody (LANCE Eu-W1024 Anti-phosphotyrosine (PT66), Perkin Elmer, AD0069), which bring the Eu-chelate donor and ULight acceptor dyes into close proximity. Upon excitation at 320 nm, the Eu-chelate transfers its energy to the ULight dye, resulting in a fluorescent light emission at 665 nm.
(§2) Serial dilutions of compounds in pure DMSO are prepared from 10 mM DMSO stock solutions. Compounds were tested in 384-well plate for 11 consecutive 5-fold dilutions starting from 20 μM highest concentration (20 μM-[…]). 200 nL of compound were transferred from mother plate to test plate by using Mosquito (TTP labtech). Assay was performed in 384-well Perkin Elmer test plate in 20 μL assay volume (kinase reaction) and 40 μL total volume (stopping reagent and antibody detection reagents). In 10 μL of substrate solution (peptide+ATP) 30/50/20/10 nM of peptide and 20/0.7/0.2/12 μM of ATP were added for JAK 1, JAK 2, JAK 3 and TYK2 respectively. 10 μL of enzyme solution was added to kinase reaction at these concentrations: 0.15/0.083/0.025/0.144 ng/μL of JAK 1, JAK 2, JAK 3 and TYK2 respectively. After shaking and 1.5 h of incubation at r.t., 20 μL of Stop (10 μL EDTA) and Detection mixture (10 μL Europium-anti-phospho antibody, final: 0.5 nM) were added. Reading was performed after 1 h of incubation on a EnVision 2104 reader (Perkin Elmer).
(§3) Calculation of IC50 data, curves and QC analysis was performed by using Excel tool and GraphPadPrism software, v9. Briefly, individual concentration-effect curves are generated by plotting the logarithm of the tested concentration of tested compounds (X) vs. corresponding percent inhibition values (Y) using least squares (ordinary) fit. Best fit IC50 values are calculated using Log(inhibitor) vs. normalized response—Variable slope equation, where Y=100/(1+10^((Log IC50−X)*HillSlope)). QC criteria parameters (Z′, S:B, R2, HillSlope) were checked for every IC50 curve. Calculation of IC50 data, curves and QC analysis were made using Excel tools and GraphPadPrism software. QC criteria parameters: Z′≥0.5, Hill Slope range 0.5 to 5, S:B>2.

JAK 2 = JAK 2 (Homo sapiens, UniProt O60674); test: Biochemical potency on JAK2, TR-FRET LANCE Ultra kinase assay (examples 1-99); details: ATP at Km (0.7 μM), read-out: JAK2 inhibitory activity (pIC50 class) (converted)
Experimental: as §1, §2, §3

JAK 3 = target: T1, JAK 3 (Homo sapiens, UniProt P52333); test: Biochemical potency on JAK3, TR-FRET LANCE Ultra kinase assay (examples 1-99); details: ATP at Km (0.2 μM), read-out: JAK3 inhibitory activity (pIC50 class) (converted)
T1 sequence (P52333 1-1124): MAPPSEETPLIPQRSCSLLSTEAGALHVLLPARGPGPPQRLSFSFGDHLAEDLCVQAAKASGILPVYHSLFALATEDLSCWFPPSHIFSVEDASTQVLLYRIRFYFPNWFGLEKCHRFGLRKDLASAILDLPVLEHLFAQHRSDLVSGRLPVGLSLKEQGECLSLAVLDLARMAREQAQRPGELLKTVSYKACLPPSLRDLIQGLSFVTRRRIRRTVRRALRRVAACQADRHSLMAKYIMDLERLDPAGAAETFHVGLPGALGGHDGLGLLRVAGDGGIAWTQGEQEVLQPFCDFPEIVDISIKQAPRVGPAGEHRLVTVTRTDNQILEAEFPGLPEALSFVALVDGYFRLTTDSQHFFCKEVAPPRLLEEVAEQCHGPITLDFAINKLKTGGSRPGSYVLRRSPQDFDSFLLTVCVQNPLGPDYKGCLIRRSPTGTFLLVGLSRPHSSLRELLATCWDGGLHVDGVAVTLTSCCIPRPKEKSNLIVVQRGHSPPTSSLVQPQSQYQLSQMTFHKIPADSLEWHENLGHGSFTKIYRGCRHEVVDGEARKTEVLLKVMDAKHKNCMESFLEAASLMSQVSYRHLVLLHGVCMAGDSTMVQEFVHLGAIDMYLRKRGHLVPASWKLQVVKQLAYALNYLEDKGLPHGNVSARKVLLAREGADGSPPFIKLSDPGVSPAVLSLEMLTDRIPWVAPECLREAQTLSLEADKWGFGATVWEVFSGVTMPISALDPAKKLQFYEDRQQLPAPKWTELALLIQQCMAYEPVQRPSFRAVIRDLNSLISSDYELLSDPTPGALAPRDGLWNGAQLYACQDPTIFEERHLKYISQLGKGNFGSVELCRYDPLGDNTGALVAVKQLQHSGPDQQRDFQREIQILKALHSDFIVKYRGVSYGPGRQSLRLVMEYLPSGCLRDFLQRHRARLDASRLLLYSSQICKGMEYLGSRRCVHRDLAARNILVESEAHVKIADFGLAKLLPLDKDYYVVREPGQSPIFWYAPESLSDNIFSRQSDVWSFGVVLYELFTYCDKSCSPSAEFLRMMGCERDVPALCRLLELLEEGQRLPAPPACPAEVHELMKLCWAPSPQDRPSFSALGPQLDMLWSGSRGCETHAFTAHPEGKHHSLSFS
Experimental: as §1, §2, §3

TYK2 = TYK2 (Homo sapiens, UniProt P29597); test: Biochemical potency on Tyk2, TR-FRET LANCE Ultra kinase assay (examples 1-99); details: ATP at Km (12 μM), read-out: Tyk2 inhibitory activity (pIC50 class) (converted)
Experimental: as §1, §2, §3

Chain of JAK 1 (P23458 whole entry, canonical isoform): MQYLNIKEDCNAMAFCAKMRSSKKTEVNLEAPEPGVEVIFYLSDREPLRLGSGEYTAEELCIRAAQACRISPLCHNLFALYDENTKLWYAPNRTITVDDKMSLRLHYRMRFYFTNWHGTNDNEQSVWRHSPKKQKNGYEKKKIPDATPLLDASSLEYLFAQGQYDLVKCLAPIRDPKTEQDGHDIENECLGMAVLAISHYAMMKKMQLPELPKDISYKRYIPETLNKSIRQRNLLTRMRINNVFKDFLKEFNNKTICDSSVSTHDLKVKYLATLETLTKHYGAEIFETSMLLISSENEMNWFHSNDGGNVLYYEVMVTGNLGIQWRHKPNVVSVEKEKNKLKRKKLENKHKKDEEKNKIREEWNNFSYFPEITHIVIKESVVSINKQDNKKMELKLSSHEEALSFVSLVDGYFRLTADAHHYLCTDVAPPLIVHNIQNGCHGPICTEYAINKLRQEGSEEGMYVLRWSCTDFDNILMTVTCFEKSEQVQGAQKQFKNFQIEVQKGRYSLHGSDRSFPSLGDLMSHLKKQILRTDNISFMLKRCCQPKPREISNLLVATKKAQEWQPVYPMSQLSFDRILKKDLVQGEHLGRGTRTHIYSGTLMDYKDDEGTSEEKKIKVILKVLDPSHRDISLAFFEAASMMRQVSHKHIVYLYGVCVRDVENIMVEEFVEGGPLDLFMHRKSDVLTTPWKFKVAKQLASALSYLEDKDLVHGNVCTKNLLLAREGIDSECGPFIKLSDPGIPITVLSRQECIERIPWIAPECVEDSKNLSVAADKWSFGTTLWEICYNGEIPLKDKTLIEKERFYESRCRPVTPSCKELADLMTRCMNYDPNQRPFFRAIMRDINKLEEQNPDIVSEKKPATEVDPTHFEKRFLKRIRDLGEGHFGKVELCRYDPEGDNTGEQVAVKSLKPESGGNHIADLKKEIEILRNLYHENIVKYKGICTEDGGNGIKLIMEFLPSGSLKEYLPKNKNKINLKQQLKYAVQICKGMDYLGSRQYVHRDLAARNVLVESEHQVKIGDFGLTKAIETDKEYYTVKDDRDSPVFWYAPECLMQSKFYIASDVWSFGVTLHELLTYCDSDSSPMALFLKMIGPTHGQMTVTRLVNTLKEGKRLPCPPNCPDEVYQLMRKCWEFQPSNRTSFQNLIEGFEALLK
Chain of TYK2 (P29597 whole entry): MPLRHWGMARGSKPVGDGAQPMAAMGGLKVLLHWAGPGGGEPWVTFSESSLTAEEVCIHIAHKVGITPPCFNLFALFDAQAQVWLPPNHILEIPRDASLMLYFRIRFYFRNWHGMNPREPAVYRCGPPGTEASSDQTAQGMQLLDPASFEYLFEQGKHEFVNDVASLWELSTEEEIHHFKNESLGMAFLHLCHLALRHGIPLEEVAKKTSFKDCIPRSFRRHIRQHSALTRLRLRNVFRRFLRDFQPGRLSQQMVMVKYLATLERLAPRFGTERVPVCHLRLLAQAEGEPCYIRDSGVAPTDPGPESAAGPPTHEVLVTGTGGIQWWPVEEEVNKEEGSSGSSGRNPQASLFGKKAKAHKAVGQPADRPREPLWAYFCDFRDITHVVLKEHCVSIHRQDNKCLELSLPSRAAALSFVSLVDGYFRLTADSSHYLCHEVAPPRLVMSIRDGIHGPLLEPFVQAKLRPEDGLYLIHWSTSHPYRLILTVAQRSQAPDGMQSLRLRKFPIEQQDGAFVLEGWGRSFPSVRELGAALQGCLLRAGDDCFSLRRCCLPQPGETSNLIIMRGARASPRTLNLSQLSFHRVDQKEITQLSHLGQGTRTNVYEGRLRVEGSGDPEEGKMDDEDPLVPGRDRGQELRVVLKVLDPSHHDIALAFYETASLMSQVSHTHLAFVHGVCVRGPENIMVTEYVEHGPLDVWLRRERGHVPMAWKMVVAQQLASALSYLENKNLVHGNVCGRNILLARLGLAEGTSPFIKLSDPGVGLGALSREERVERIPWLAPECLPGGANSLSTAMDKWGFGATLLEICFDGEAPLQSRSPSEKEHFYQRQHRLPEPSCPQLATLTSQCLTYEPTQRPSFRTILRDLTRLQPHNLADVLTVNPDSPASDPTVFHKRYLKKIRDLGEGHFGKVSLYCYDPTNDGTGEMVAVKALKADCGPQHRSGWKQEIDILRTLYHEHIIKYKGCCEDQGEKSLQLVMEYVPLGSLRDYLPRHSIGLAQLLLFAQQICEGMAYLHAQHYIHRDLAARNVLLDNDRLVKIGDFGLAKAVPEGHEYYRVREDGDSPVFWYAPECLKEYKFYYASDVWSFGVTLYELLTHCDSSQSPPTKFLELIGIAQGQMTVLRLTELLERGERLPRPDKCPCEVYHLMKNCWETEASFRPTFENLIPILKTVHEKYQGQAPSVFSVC
Chain of JAK 2 (O60674 whole entry): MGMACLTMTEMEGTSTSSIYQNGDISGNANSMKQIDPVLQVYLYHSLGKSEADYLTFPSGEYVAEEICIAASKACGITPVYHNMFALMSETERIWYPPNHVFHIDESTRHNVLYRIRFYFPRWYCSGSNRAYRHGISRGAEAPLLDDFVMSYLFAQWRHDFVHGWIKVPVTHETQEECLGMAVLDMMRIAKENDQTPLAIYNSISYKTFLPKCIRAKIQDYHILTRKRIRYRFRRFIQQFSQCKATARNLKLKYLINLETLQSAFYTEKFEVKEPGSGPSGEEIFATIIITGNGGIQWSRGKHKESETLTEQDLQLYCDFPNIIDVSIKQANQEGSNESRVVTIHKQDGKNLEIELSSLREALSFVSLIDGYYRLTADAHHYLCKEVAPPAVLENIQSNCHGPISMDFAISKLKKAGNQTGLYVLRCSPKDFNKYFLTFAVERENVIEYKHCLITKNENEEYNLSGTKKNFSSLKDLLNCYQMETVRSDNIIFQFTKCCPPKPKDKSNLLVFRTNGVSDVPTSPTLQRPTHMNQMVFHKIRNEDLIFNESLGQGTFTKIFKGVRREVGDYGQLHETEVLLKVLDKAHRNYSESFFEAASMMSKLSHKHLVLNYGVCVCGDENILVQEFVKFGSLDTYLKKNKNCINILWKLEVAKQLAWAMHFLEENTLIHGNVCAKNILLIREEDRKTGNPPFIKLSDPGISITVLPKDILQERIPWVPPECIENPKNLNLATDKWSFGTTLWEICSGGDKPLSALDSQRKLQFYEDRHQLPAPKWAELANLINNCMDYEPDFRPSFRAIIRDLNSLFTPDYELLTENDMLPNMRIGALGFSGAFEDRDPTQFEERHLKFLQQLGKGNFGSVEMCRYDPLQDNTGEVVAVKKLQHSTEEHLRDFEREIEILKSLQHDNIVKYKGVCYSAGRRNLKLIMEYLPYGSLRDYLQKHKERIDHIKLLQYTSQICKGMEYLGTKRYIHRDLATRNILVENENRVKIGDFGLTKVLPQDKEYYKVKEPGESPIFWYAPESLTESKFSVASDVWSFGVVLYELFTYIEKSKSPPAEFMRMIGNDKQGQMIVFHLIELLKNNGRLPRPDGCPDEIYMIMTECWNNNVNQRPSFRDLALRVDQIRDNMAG

IC50 (JAK 1)	IC50 (JAK 2)	IC50 (JAK 3)	IC50 (TYK2)	Structure (SMILES)
5.01 to 50.1 nM	5.01 to 50.1 nM	5.01 to 50.1 nM	> 50.1 nM	CNCc1nn(-c2cc(Cl)ccc2OC(F)F)c2cc(-c3cnn4cccnc34)ncc12 [Example 31, 1-(1-(5-chloro-2-(difluoromethoxy)phenyl)-6-(pyrazolo[1,5-a]pyrimidin-3-yl)-1H-pyrazolo[4,3-c]pyridin-3-yl)-N-methylmethanamine]
5.01 to 50.1 nM	≤ 5.01 nM	5.01 to 50.1 nM	5.01 to 50.1 nM	NCc1nn(-c2cc(Cl)ccc2OC(F)F)c2cc(-c3cnn4cccnc34)ncc12 [Example 32, (1-(5-chloro-2-(difluoromethoxy)phenyl)-6-(pyrazolo[1,5-a]pyrimidin-3-yl)-1H-pyrazolo[4,3-c]pyridin-3-yl)methanamine]
≤ 5.01 nM	≤ 5.01 nM	≤ 5.01 nM	5.01 to 50.1 nM	CNC(=O)c1nn(-c2cc(Cl)ccc2OC(F)F)c2cc(-c3cnn4cccnc34)ncc12 [Example 33, 1-(5-chloro-2-(difluoromethoxy)phenyl)-N-methyl-6-(pyrazolo[1,5-a]pyrimidin-3-yl)-1H-pyrazolo[4,3-c]pyridine-3-carboxamide]
5.01 to 50.1 nM	5.01 to 50.1 nM	5.01 to 50.1 nM	> 50.1 nM	COc1ccc(Cl)cc1-n1nc(C(=O)N[C@H]2C[C@@H](O)C2)c2cnc(-c3cnn4cccnc34)cc21 [Example 34, 1-(5-chloro-2-methoxyphenyl)-N-((1s,3s)-3-hydroxycyclobutyl)-6-(pyrazolo[1,5-a]pyrimidin-3-yl)-1H-pyrazolo[4,3-c]pyridine-3-carboxamide]
5.01 to 50.1 nM	5.01 to 50.1 nM	5.01 to 50.1 nM	5.01 to 50.1 nM	O=C(c1nn(-c2cc(Cl)ccc2OC(F)F)c2cc(-c3cnn4cccnc34)ncc12)N1CCS(=O)(=O)CC1 [Example 35, (1-(5-chloro-2-(difluoromethoxy)phenyl)-6-(pyrazolo[1,5-a]pyrimidin-3-yl)-1H-pyrazolo[4,3-c]pyridin-3-yl)(1,1-dioxidothiomorpholino)methanone]
5.01 to 50.1 nM	5.01 to 50.1 nM	5.01 to 50.1 nM	> 50.1 nM	CN(C)[C@H]1C[C@@H](NC(=O)c2nn(-c3cc(Cl)ccc3OC(F)F)c3cc(-c4cnn5cccnc45)ncc23)C1 [Example 36, 1-(5-chloro-2-(difluoromethoxy)phenyl)-N-((1s,3s)-3-(dimethylamino)cyclobutyl)-6-(pyrazolo[1,5-a]pyrimidin-3-yl)-1H-pyrazolo[4,3-c]pyridine-3-carboxamide]
≤ 5.01 nM	≤ 5.01 nM	≤ 5.01 nM	5.01 to 50.1 nM	CSc1ccc(OC(F)F)c(-n2nc(C(=O)NCCCN(C)C)c3cnc(-c4cnn5cccnc45)cc32)c1 [Example 37, 1-(2-(difluoromethoxy)-5-(methylthio)phenyl)-N-(3-(dimethylamino)propyl)-6-(pyrazolo[1,5-a]pyrimidin-3-yl)-1H-pyrazolo[4,3-c]pyridine-3-carboxamide]
5.01 to 50.1 nM	5.01 to 50.1 nM	5.01 to 50.1 nM	> 50.1 nM	COc1ccc(F)cc1-n1nc(C(=O)NCCCN(C)C)c2cnc(-c3cnn4cccnc34)cc21 [Example 38, N-(3-(dimethylamino)propyl)-1-(5-fluoro-2-methoxyphenyl)-6-(pyrazolo[1,5-a]pyrimidin-3-yl)-1H-pyrazolo[4,3-c]pyridine-3-carboxamide]
≤ 5.01 nM	≤ 5.01 nM	≤ 5.01 nM	5.01 to 50.1 nM	COc1ccc(Cl)cc1-n1nc(N)c2cnc(-c3cnn4cccnc34)cc21 [Example 39, 1-(5-chloro-2-methoxyphenyl)-6-(pyrazolo[1,5-a]pyrimidin-3-yl)-1H-pyrazolo[4,3-c]pyridin-3-amine]
≤ 5.01 nM	≤ 5.01 nM	≤ 5.01 nM	5.01 to 50.1 nM	COc1ccc(Cl)cc1-n1nc(NC(C)=O)c2cnc(-c3cnn4cccnc34)cc21 [Example 40, N-(1-(5-chloro-2-methoxyphenyl)-6-(pyrazolo[1,5-a]pyrimidin-3-yl)-1H-pyrazolo[4,3-c]pyridin-3-yl)acetamide]
≤ 5.01 nM	≤ 5.01 nM	≤ 5.01 nM	5.01 to 50.1 nM	CNc1nn(-c2cc(Cl)ccc2OC)c2cc(-c3cnn4cccnc34)ncc12 [Example 41, 1-(5-chloro-2-methoxyphenyl)-N-methyl-6-(pyrazolo[1,5-a]pyrimidin-3-yl)-1H-pyrazolo[4,3-c]pyridin-3-amine]
5.01 to 50.1 nM	5.01 to 50.1 nM	5.01 to 50.1 nM	5.01 to 50.1 nM	COc1ccc(Cl)cc1-n1nc(N(C)C)c2cnc(-c3cnn4cccnc34)cc21 [Example 42, 1-(5-chloro-2-methoxyphenyl)-N,N-dimethyl-6-(pyrazolo[1,5-a]pyrimidin-3-yl)-1H-pyrazolo[4,3-c]pyridin-3-amine]
5.01 to 50.1 nM	5.01 to 50.1 nM	5.01 to 50.1 nM	> 50.1 nM	COc1ccc(S(C)(=O)=O)cc1-n1nc(NCCN2CCOCC2)c2cnc(-c3cnn4cccnc34)cc21 [Example 43, 1-(2-methoxy-5-(methylsulfonyl)phenyl)-N-(2-morpholinoethyl)-6-(pyrazolo[1,5-a]pyrimidin-3-yl)-1H-pyrazolo[4,3-c]pyridin-3-amine]
5.01 to 50.1 nM	≤ 5.01 nM	5.01 to 50.1 nM	5.01 to 50.1 nM	COc1ccc(C(F)F)cc1-n1nc(NCCN(C)C)c2cnc(-c3cnn4cccnc34)cc21 [Example 44, N1-(1-(5-(difluoromethyl)-2-methoxyphenyl)-6-(pyrazolo[1,5-a]pyrimidin-3-yl)-1H-pyrazolo[4,3-c]pyridin-3-yl)-N2,N2-dimethylethane-1,2-diamine]
5.01 to 50.1 nM	5.01 to 50.1 nM	5.01 to 50.1 nM	> 50.1 nM	COc1ccc(C)cc1-n1nc(NCCN(C)C)c2cnc(-c3cnn4cccnc34)cc21 [Example 45, N1-(1-(2-methoxy-5-methylphenyl)-6-(pyrazolo[1,5-a]pyrimidin-3-yl)-1H-pyrazolo[4,3-c]pyridin-3-yl)-N2,N2-dimethylethane-1,2-diamine]
